In US11524968B2, “Heterocyclic compound as a protein kinase inhibitor” (HK inno.N Corporation, priority 2017, dated 2022):

molecular target: JAK1 (Homo sapiens (Human), UniProt P23458); experiment: Analysis of JAK1 activity inhibition ability (ADP-Glo Kinase Assay); format: biochemical; conditions: JAK1 enzyme, ADP-Glo luminescence, ATP 250 uM, IRS-itide substrate, 30° C. 40 minutes; read-out: IC50
Outline: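 JAK1 enzyme, IRS-itide substrate (40 ng/mL) and 250 uM ATP, both as prepared in kinase buffer (Tris-HCl pH 7.5, MgCl2, BSA, DTT), reacted with compound 40 min at 30 °C. ADP formed was detected by ADP-Glo luminescence; IC50 is the concentration giving 50% inhibition versus control.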

Chain of JAK1 (P23458 whole entry): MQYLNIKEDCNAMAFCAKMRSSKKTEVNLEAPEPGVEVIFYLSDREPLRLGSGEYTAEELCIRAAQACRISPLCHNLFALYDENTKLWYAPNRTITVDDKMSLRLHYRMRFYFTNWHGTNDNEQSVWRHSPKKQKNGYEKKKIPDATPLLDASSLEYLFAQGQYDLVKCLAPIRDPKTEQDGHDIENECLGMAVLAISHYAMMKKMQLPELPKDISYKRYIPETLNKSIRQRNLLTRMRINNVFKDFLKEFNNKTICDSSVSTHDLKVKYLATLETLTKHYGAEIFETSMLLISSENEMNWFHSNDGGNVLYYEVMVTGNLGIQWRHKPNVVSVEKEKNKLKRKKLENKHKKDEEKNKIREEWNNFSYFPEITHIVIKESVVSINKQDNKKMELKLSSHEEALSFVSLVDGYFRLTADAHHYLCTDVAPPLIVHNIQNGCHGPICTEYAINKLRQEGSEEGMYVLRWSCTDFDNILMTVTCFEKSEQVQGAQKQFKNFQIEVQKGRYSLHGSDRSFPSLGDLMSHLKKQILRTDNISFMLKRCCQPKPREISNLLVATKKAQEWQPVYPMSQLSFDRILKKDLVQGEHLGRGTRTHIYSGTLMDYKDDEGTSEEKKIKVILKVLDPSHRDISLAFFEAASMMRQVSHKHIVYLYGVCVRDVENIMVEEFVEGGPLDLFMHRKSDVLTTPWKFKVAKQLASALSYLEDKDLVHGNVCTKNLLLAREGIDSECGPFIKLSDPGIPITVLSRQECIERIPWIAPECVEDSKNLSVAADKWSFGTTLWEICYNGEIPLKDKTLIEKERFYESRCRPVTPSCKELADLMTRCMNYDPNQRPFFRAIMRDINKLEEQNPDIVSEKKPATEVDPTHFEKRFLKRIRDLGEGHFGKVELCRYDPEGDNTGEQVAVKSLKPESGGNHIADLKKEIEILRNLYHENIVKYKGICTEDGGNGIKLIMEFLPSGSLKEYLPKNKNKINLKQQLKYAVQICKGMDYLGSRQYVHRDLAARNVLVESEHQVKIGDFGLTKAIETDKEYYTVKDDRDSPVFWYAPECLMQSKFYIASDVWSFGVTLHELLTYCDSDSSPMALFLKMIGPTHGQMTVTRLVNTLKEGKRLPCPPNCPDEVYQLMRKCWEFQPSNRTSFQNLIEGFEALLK

Compared with N#Cc1ccc(COc2ccc(-c3nc(NC(=O)C4CC4)nc4[nH]cnc34)cc2)cn1 [Example 644, N-(6-(4-((6-cyanopyridin-3-yl)methoxy)phenyl)-9H-purin-2-yl)cyclopropanecarboxamide], CCS(=O)(=O)N1C2CCC1CN(c1nc(NC(=O)C3CC3)nc3[nH]ccc13)C2 [Example 669, N-(4-(8-(ethylsulfonyl)-3,8-diazabicyclo[3.2.1]octan-3-yl)-7H-pyrrolo[2,3-d]pyrimidin-2-yl)cyclopropanecarboxamide] is lower in IC50: greater than 0.2 µM for the first, 0.02 to 0.2 µM for the second.

First: CCS(=O)(=O)NC1CCC(c2cc(NC(=O)C3CC3)nc3[nH]ccc23)CC1 (stereo not shown) [Example 645, N-(4-(4-(ethylsulfonamido)cyclohexyl)-1H-pyrrolo[2,3-b]pyridin-6-yl)cyclopropanecarboxamide]
Second: CCS(=O)(=O)N1C2CCC1CC(c1cc(NC(=O)C3CC3)nc3[nH]ccc13)C2 (stereo not shown) [Example 646, N-(4-(8-(ethylsulfonyl)-8-azabicyclo[3.2.1]octan-3-yl)-1H-pyrrolo[2,3-b]pyridin-6-yl)cyclopropanecarboxamide]
The IC50 of the first is lower: 0.02 to 0.2 µM for the first, greater than 0.2 µM for the second.

O=C(Nc1cc(C2CC3CCC(C2)N3S(=O)(=O)C2CC2)c2cc[nH]c2n1)C1CC1 (stereo not shown) [Example 647, N-(4-(8-(cyclopropylsulfonyl)-8-azabicyclo[3.2.1]octan-3-yl)-1H-pyrrolo[2,3-b]pyridin-6-yl)cyclopropanecarboxamide] and O=C(Nc1cc(C2CC3CCC(C2)N3C(=O)C2CC2)c2cc[nH]c2n1)C1CC1 (stereo not shown) [Example 650, N-(4-(8-(cyclopropanecarbonyl)-8-azabicyclo[3.2.1]octan-3-yl)-1H-pyrrolo[2,3-b]pyridin-6-yl)cyclopropanecarboxamide] cannot be ordered by IC50: greater than 0.2 µM for the first, greater than 0.2 µM for the second.

O=C(Nc1cc(C2CC3CCC(C2)N3S(=O)(=O)CCCF)c2cc[nH]c2n1)C1CC1 (stereo not shown) [Example 648, N-(4-(8-((3-fluoropropyl)sulfonyl)-8-azabicyclo[3.2.1]octan-3-yl)-1H-pyrrolo[2,3-b]pyridin-6-yl)cyclopropanecarboxamide] and CCCCC(=O)N1C2CCC1CC(c1cc(NC(=O)C3CC3)nc3[nH]ccc13)C2 (stereo not shown) [Example 651, N-(4-(8-pentanoyl-8-azabicyclo[3.2.1]octan-3-yl)-1H-pyrrolo[2,3-b]pyridin-6-yl)cyclopropanecarboxamide] cannot be ordered by IC50: greater than 0.2 µM for the first, greater than 0.2 µM for the second.

Compared with O=C(Nc1cc(C2CC3CCC(C2)N3S(=O)(=O)c2ccc(F)c(F)c2)c2cc[nH]c2n1)C1CC1 (stereo not shown) [Example 649, N-(4-(8-((3,4-difluorophenyl)sulfonyl)-8-azabicyclo[3.2.1]octan-3-yl)-1H-pyrrolo[2,3-b]pyridin-6-yl)cyclopropanecarboxamide], CCNC(=S)N1C2CCC1CC(c1cc(NC(=O)C3CC3)nc3[nH]ccc13)C2 (stereo not shown) [Example 657, N-(4-(8-(ethylcarbamothioyl)-8-azabicyclo[3.2.1]octan-3-yl)-1H-pyrrolo[2,3-b]pyridin-6-yl)cyclopropanecarboxamide] is lower in IC50: greater than 0.2 µM for the first, 0.02 to 0.2 µM for the second.

Compared with N#CCC(=O)N1CCC(c2cc(NC(=O)C3CC3)nc3[nH]ccc23)CC1 [Example 652, N-(4-(1-(2-cyanoacetyl)piperidin-4-yl)-1H-pyrrolo[2,3-b]pyridin-6-yl)cyclopropanecarboxamide], O=C(Nc1cc(C2CCN(C(=O)NCC(F)(F)F)CC2)c2cc[nH]c2n1)C1CC1 [Example 654, 4-(6-(cyclopropanecarboxamido)-1H-pyrrolo[2,3-b]pyridin-4-yl)-N-(2,2,2-trifluoroethyl)piperidine-1-carboxamide] is higher in IC50: 0.02 to 0.2 µM for the first, greater than 0.2 µM for the second. The first is the more potent here.

CCCCNC(=O)N1CCC(c2cc(NC(=O)C3CC3)nc3[nH]ccc23)CC1 [Example 653, N-butyl-4-(6-(cyclopropanecarboxamido)-1H-pyrrolo[2,3-b]pyridin-4-yl)piperidine-1-carboxamide] and CCCCNC(=S)N1CCC(c2cc(NC(=O)C3CC3)nc3[nH]ccc23)CC1 [Example 659, N-(4-(1-(butylcarbamothioyl)piperidin-4-yl)-1H-pyrrolo[2,3-b]pyridin-6-yl)cyclopropanecarboxamide] cannot be ordered by IC50: greater than 0.2 µM for the first, greater than 0.2 µM for the second.

CC(C)(C)OC(=O)N1CCC(c2cc(NC(=O)C3CC3)nc3[nH]ccc23)C(O)C1 (stereo not shown) [Example 655, tert-butyl 4-(6-(cyclopropanecarboxamido)-1H-pyrrolo[2,3-b]pyridin-4-yl)-3-hydroxypiperidine-1-carboxylate] and CC(C)(C)OC(=O)N1CCC(c2cc(NC(=O)C3CC3)nc3[nH]ccc23)C(F)C1 (stereo not shown) [Example 656, tert-butyl 4-(6-(cyclopropanecarboxamido)-1H-pyrrolo[2,3-b]pyridin-4-yl)-3-fluoropiperidine-1-carboxylate] cannot be ordered by IC50: greater than 0.2 µM for the first, greater than 0.2 µM for the second.

CCNC(=S)N1CCC(c2cc(NC(=O)C3CC3)nc3[nH]ccc23)CC1 [Example 658, N-(4-(1-(ethylcarbamothioyl)piperidin-4-yl)-1H-pyrrolo[2,3-b]pyridin-6-yl)cyclopropanecarboxamide] and CS(=O)(=O)N1CCN(c2cc(NC(=O)C3CC3)nc3[nH]ccc23)CC1 [Example 660, N-(4-(4-(methylsulfonyl)piperazin-1-yl)-1H-pyrrolo[2,3-b]pyridin-6-yl)cyclopropanecarboxamide] cannot be ordered by IC50: greater than 0.2 µM for the first, greater than 0.2 µM for the second.

N#CC1(CS(=O)(=O)N2CCN(c3cc(NC(=O)C4CC4)nc4[nH]ccc34)CC2)CC1 [Example 662, N-(4-(4-(((1-cyanocyclopropyl)methyl)sulfonyl)piperazin-1-yl)-1H-pyrrolo[2,3-b]pyridin-6-yl)cyclopropanecarboxamide] and O=C(Nc1cc(N2CCN(S(=O)(=O)CCCF)CC2)c2cc[nH]c2n1)C1CC1 [Example 663, N-(4-(4-((3-fluoropropyl)sulfonyl)piperazin-1-yl)-1H-pyrrolo[2,3-b]pyridin-6-yl)cyclopropanecarboxamide] cannot be ordered by IC50: greater than 0.2 µM for the first, greater than 0.2 µM for the second.

First: N#CCCCS(=O)(=O)N1C2CCC1CN(c1cc(NC(=O)C3CC3)nc3[nH]ccc13)C2 [Example 664, N-(4-(8-((3-cyanopropyl)sulfonyl)-3,8-diazabicyclo[3.2.1]octan-3-yl)-1H-pyrrolo[2,3-b]pyridin-6-yl)cyclopropanecarboxamide]
Second: O=C(Nc1cc(N2CC3CCC(C2)N3S(=O)(=O)CCCC(F)(F)F)c2cc[nH]c2n1)C1CC1 [Example 666, N-(4-(8-((4,4,4-trifluorobutyl)sulfonyl)-3,8-diazabicyclo[3.2.1]octan-3-yl)-1H-pyrrolo[2,3-b]pyridin-6-yl)cyclopropanecarboxamide]
The IC50 of the first is lower: 0.02 to 0.2 µM for the first, greater than 0.2 µM for the second. The first is the more potent here.

Compared with N#CCC1(CS(=O)(=O)N2C3CCC2CN(c2cc(NC(=O)C4CC4)nc4[nH]ccc24)C3)CC1 [Example 665, N-(4-(8-(((1-(cyanomethyl)cyclopropyl)methyl)sulfonyl)-3,8-diazabicyclo[3.2.1]octan-3-yl)-1H-pyrrolo[2,3-b]pyridin-6-yl)cyclopropanecarboxamide], N#CC1(CS(=O)(=O)N2C3CCC2CN(c2cc(NC(=O)C4CC4)nc4[nH]ccc24)C3)CC1 [Example 667, N-(4-(8-(((1-cyanocyclopropyl)methyl)sulfonyl)-3,8-diazabicyclo[3.2.1]octan-3-yl)-1H-pyrrolo[2,3-b]pyridin-6-yl)cyclopropanecarboxamide] is lower in IC50: 0.02 to 0.2 µM for the first, less than 0.02 µM for the second.

In the case of CCCS(=O)(=O)N1CCN(c2nc(NC(=O)C3CC3)nc3[nH]ccc23)CC1 [Example 668, N-(4-(4-(propylsulfonyl)piperazin-1-yl)-7H-pyrrolo[2,3-d]pyrimidin-2-yl)cyclopropanecarboxamide], the IC50 is reported as greater than 0.2 µM.
